Results reported in patent publication US10123983B2, “DNA methyltransferases for the treatment and prevention of arthritis” (Washington University, priority 2015, dated 2018).

Tests used:
WT murine PACs [1] = experiment: Mitochondria stress test (Seahorse XF Extracellular Flux Analyzer) after succinate treatment; format: cell-based, mouse; settings: 1 mM diethyl succinate, 48 h
Protocol: FIG. 13A, FIG. 13B, FIG. 13C, FIG. 13D, FIG. 13E, FIG. 13F, FIG. 13G, FIG. 13H, FIG. 13I, FIG. 13J, FIG. 13K, FIG. 13L, FIG. 13M and FIG. 13N depict graphs showing mitochondria function and cellular homeostasis in Dnmt3b LOF chondrocytes. Primary articular chondrocytes were isolated from 2 mo Dnmt3b^f/f mice and infected with Ad5-Cre (Dnmt3b LOF) or Ad5-GFP (Ctrl) for 48 h. (FIG. 13A, FIG. 13B, FIG. 13C) Mitochondrial respiration was measured by the Seahorse XF Extracellular Flux Analyzer. Basal respiration and maximal respiration, as measured by the oxygen consumption rate (OCR) are shown. (FIG. 13D, FIG. 13E, FIG. 13F) TCA metabolite (succinate, fumarate) and NADH analysis by HPLC-MS. (FIG. 13G, FIG. 13H, FIG. 13I) Mitochondrial metabolism analysis was measured in 2 mo WT cells treated with either 1 mM diethyl succinate or vehicle for 48 h by the Seahorse XF Extracellular Flux Analyzer. (FIG. 13J) Chondrocyte gene expression in response to succinate treatment was analyzed by qPCR. (FIG. 13K, FIG. 13L, FIG. 13M) Mitochondrial respiration analysis in BMP-2-treated 2 mo WT chondrocytes in the presence or absence antimycin A+rotenone for 48 h. […]
Metabolite analysis and mitochondria stress test. […] Metabolites were analyzed by LC-MS/MS as previously described^60. […] At the end of the assays, protein concentrations were measured for normalization.

[2] = system: Primary articular chondrocytes from 2 mo WT mice; experiment: Succinate concentration assay; format: cell-based, mouse; settings: 1 mM diethyl succinate, 48 h
Protocol: FIG. 15 depicts a graph showing cellular succinate levels in murine chondrocytes. Primary articular chondrocytes from 2 mo WT mice were treated with 1 mM diethyl succinate or vehicle for 48 h.
Succinate concentration assay. Primary articular chondrocytes isolated from 2 mo WT mice were treated with vehicle or diethylsuccinate (1 mM) for 48 h. Intracellular succinate concentration was measured using the succinate colorimetric assay kit following the manufacturer's instruction (Sigma, #MAK184-1KT).

WT murine PACs [3] = experiment: Chondrocyte gene expression in response to succinate treatment (qPCR); format: cell-based, mouse
Protocol: FIG. 13A, FIG. 13B, FIG. 13C, FIG. 13D, FIG. 13E, FIG. 13F, FIG. 13G, FIG. 13H, FIG. 13I, FIG. 13J, FIG. 13K, FIG. 13L, FIG. 13M and FIG. 13N depict graphs showing mitochondria function and cellular homeostasis in Dnmt3b LOF chondrocytes. Primary articular chondrocytes were isolated from 2 mo Dnmt3b^f/f mice and infected with Ad5-Cre (Dnmt3b LOF) or Ad5-GFP (Ctrl) for 48 h. (FIG. 13A, FIG. 13B, FIG. 13C) Mitochondrial respiration was measured by the Seahorse XF Extracellular Flux Analyzer. Basal respiration and maximal respiration, as measured by the oxygen consumption rate (OCR) are shown. (FIG. 13D, FIG. 13E, FIG. 13F) TCA metabolite (succinate, fumarate) and NADH analysis by HPLC-MS. (FIG. 13G, FIG. 13H, FIG. 13I) Mitochondrial metabolism analysis was measured in 2 mo WT cells treated with either 1 mM diethyl succinate or vehicle for 48 h by the Seahorse XF Extracellular Flux Analyzer. (FIG. 13J) Chondrocyte gene expression in response to succinate treatment was analyzed by qPCR. (FIG. 13K, FIG. 13L, FIG. 13M) Mitochondrial respiration analysis in BMP-2-treated 2 mo WT chondrocytes in the presence or absence antimycin A+rotenone for 48 h. (FIG. 13N) Analysis of chondrocyte gene expression in response to BMP-2 treatment+/−antimycin A+rotentone (0.1 μM).
Real-time PCR and western blot. RNA was isolated from ATDC-5 chondrocytes or primary articular chondrocytes using RNeasy Mini kit (Qiagen). cDNA synthesis and real-time RT-PCR was performed according to manufacturer's instructions. Western blot analyses were conducted on the protein of lysates from either ATDC-5 cells or primary (murine or human) articular chondrocytes. The following primary antibodies were used: pSmad1/5 (Cell Signaling technology Inc., 1:500), pSmad2 (Cell Signaling technology Inc., 1:1000), Smad1/5/8 (Cell Signaling technology Inc., 1:1000), Smad2 (Cell Signaling technology Inc., 1:1000), DNMT3A (LSBio, 1:1000), DNMT3B (LSBio, 1:1000), FLAG (Life technology, 1:1000) and β-actin (Sigma, 1:2000).

Dnmt3b LOF chondrocytes = experiment: Vigabatrin treatment of Dnmt3b LOF primary articular chondrocytes, hypertrophic marker expression; format: cell-based, mouse
Protocol: FIG. 23A, FIG. 23B and FIG. 23C depict ablation of Dnmt3b in articular chondrocytes (ACs). Primary Acs from Dnmt3b^f/f mice were infected with Ad5-Cre or Ad-GFP for 48 hr and cultured for a further 48 hr with or without vigabatrin (500μM).
To determine if this effect is dependent upon increased Abat expression, experiments were performed using vigabatrin to inhibit Abat activity in articular chondrocytes. […] Work will comprehensively investigate the role of Abat in controlling both metabolism and hypertrophic/catabolic responses in articular chondrocytes, and define its role in the development of OA.

[4] = rodents, within the proposed dosage range; literature study (99); cited from earlier work
[5] = system: primary articular chondrocytes; experiment: Cytokine-induced chondrocyte hypertrophy measured by ALP activity; format: cell-based, mouse; settings: cytokine treatment
Protocol: FIG. 24 depicts Dnmt3b gain-of-function attenuates IL-1β-induced chondrocyte hypertrophy. Primary ACs from 2 mo Dnmt3b GOF mice were treated with vehicle or doxycycline (10 μg/ml) for 24 hr. Medium without or with IL-1β (1 ng/ml) was added for 48 hr and ALP staining performed using NBT/BCIP substrate solution.
Hypertrophic characteristics, as measured by ALP activity, were induced in primary articular chondrocytes by treatment with either IL-1β or TNF-α. Dnmt3b GOF was induced by transfecting a plasmid expressing full-length Flag-tagged Dnmt3b cDNA. Western blot confirmed protein over-expression (data not shown). […] Similar results were shown in the TNF-α experiment (results not shown)

[6] = system: murine WT primary articular chondrocytes; experiment: IL-1β induction of murine WT primary articular chondrocytes, Dnmt3b expression; format: cell-based, mouse; settings: IL-1β induction 48 h
Excerpt: (§1) FIG. 4A, FIG. 4B, FIG. 4C, FIG. 4D, FIG. 4E and FIG. 4F depict sequences, graphs and a nucleic acid gel and immunoblot showing IL-1β regulation of Dnmt3b is mediated in part by NF-κB. (FIG. 4A) Sequence alignment and conservation of an NF-κB binding site (red) in the promoter region of the Dnmt3b gene of different species. Mouse—SEQ ID NO:1; Human—SEQ ID NO:2; Dog; SEQ ID NO:3; Horse—SEQ ID NO:4. […] Reduced luciferase activity is attenuated when ATDC-5 cells were transfected with a reporter plasmid containing a mutated NF-κB binding site ([…]; SEQ ID NO:5). […] (FIG. 4E, FIG. 4F) Dnmt3b mRNA and protein levels were reduced in murine WT primary articular chondrocytes (extracted from 3 mo murine knee joints) following IL-1β induction (48 h).
Real-time PCR and western blot. RNA was isolated from ATDC-5 chondrocytes or primary articular chondrocytes using RNeasy Mini kit (Qiagen). cDNA synthesis and real-time RT-PCR was performed according to manufacturer's instructions. Western blot analyses were conducted on the protein of lysates from either ATDC-5 cells or primary (murine or human) articular chondrocytes. […]

[7] = system: human primary articular chondrocytes; experiment: IL-1β treatment of human primary articular chondrocytes, gene and protein expression; format: cell-based
Excerpt: FIG. 1A, FIG. 1B, FIG. 1C, FIG. 1D, FIG. 1E, FIG. 1F, FIG. 1G, FIG. 1H, FIG. 1I, FIG. 1J, FIG. 1K, FIG. 1L and FIG. 1M depict images, graphs and an immunoblot showing Dnmt3b expression in murine and human knee joint cartilage. (FIG. 1A, FIG. 1B) Dnmt3a is not expressed in chondrocytes from 3 mo WT articular cartilage [(FIG. 1B) represents a magnified image of the boxed region in (FIG. 1A)]. (FIG. 1C) Dnmt3a expression in pancreas tissue (positive control). (FIG. 1D, FIG. 1E, FIG. 1F) Robust expression of Dnmt3b in chondrocytes of 3 mo WT articular cartilage and lower expression in underlying growth plate cartilage; [(FIG. 1E) represents a magnified image of the dashed boxed area of articular cartilage in (FIG. 1D); (FIG. 1F) represents a magnified image of the solid boxed area of growth plate cartilage in (FIG. 1D)]. Dnmt3b expression is also shown in: (FIG. 1G) 3 mo versus 27 mo WT murine knee articular cartilage; (FIG. 1H) 14 wk old murine articular cartilage following MLI surgery compared to cartilage from sham control knees; (FIG. 1I) 14 wk murine articular cartilage in mice fed a high fat diet (HFD) compared to controls (Ctrl) fed a normal diet. (FIG. 1J) Two representative images showing DNMT3B expression in human healthy articular cartilage or osteoarthritic cartilage tissue sections. (FIG. 1K) Reduced DNMT3B expression in human primary OA chondrocytes compared to healthy chondrocytes). […] All scale bars, 100 μm.
FIG. 3A and FIG. 3B depict graphs showing altered anabolic and catabolic gene expression in IL-1β-treated human primary chondrocytes. Reduced COL2A1 (FIG. 3A) and increased MMP13 (FIG. 3B) expression following IL-1β treatment (48 h) of human primary articular chondrocytes isolated from total knee replacement surgeries.
Full thickness sections of human articular cartilage were removed from the femoral condyles and tibial plateaus of specimens obtained following total knee replacement surgery, diced into 2 mm cubes and digested in sterile spinner flasks for 90 min at 37° C. in pronase digestion buffer [DMEM/F12 (Gibco); 5% FBS (Atlanta Biologicals), 2% penicillin/streptomycin (Gibco) and 0.4% pronase (Roche)]. Following washes in HBSS (Gibco), tissue was further digested in collagenase digestion buffer at 37° C. [DMEM/F12; 5% FBS; 2% penicillin/streptomycin; 0.035% collagenase P (Roche)] for 14-16 hr. Cells were collected, filtered through 70 μm cell strainers (VWR) and plated at a density of 100,000 cells/cm^2. After 24 hr, chondrocytes were treated with IL-1β (10 ng/ml; Gibco) for 48 hr. Total RNA was collected using the Total RNA prep kit (Norgen Biotek) and cDNA was synthesized using Superscript RT II (Life Technologies).
Real-time PCR and western blot. […]

Dnmt3b promoter = Dnmt3b promoter luciferase assay; format: cell-based, mouse; settings: ATDC-5 cells, IL-1β 1 ng/ml, 24 h, versus untreated control
Excerpt: as §1
Dnmt3b promoter luciferase assay. ATDC-5 cells were transfected with a pGL4 luciferase plasmid containing cDNA encoding 1 kb of the murine Dnmt3b promoter using X-tremeGENE transfection reagents (Roche, #06366236001). A Dnmt3b promoter construct containing mutations in the predicted NFκB binding site was also transfected into an additional set of ATDC-5 cells. All transfected cells were then treated with IL-1β (1 ng/ml) for 24 h before performing the luciferase assay.

[8] = Abat inhibition with vigabatrin

Compound: CCOC(=O)CCC(=O)OCC [diethyl succinate]
- basal respiration (OCR) (WT murine PACs [1]): increased
- maximal respiration (OCR) (WT murine PACs [1]): increased
- cellular succinate levels [2]: Increased levels of cellular succinate
- Col2a1 expression (WT murine PACs [3]): decreased
- Mmp13 expression (WT murine PACs [3]): increase
- Runx2 expression (WT murine PACs [3]): increase

Compound: C=CC(N)CCC(=O)O (stereo not drawn) [vigabatrin]
- Col10a1 expression in Dnmt3b LOF chondrocytes (Dnmt3b LOF chondrocytes; [8]): attenuates the increased expression
- Mmp13 expression in Dnmt3b LOF chondrocytes (Dnmt3b LOF chondrocytes; [8]): attenuates the increased expression
- Runx2 expression in Dnmt3b LOF chondrocytes (Dnmt3b LOF chondrocytes; [8]): attenuates the increased expression
- catabolic responses in chondrocytes (Dnmt3b LOF chondrocytes; in vitro administration): can block catabolic responses
- hypertrophic gene expression induced by Dnmt3b LOF (Dnmt3b LOF chondrocytes; vigabatrin 500μM, 48 hr, primary ACs from Dnmt3b f/f mice infected with Ad5-Cre): partially attenuated
- side effects [4]: did not report any side effects

Compound: TNF-α
- hypertrophic characteristics, as measured by ALP activity [5]: induced

Compound: IL-1β: pro-inflammatory cytokine
- Dnmt3b mRNA level [6]: reduced
- Dnmt3b protein level [6]: reduced
- DNMT3B mRNA expression ([7]; IL-1β 10 ng/ml, 48 hr): decreased
- DNMT3B protein expression ([7]; IL-1β 10 ng/ml, 48 hr): decreased
- COL2A1 expression ([7]; IL-1β treatment 48 h): Reduced
- MMP13 expression ([7]; IL-1β treatment 48 h): increased
- luciferase expression of Dnmt3b promoter reporter (Dnmt3b promoter): Reduced luciferase expression
- hypertrophic characteristics, as measured by ALP activity [5]: induced
